System: MDA-MB-231 multicell spheroids, viability
Assay: Anticancer human tumor MDA-MB-231 cell line growth inhibition [PI3K];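 further: spheroids exposed to agents for seven days before reading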;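 on viability, T/C: percent of vehicle control luminescence with DMSO treated spheroids as 100%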
Settings: for IC50: curve of first compound; for viability, T/C: stronger effect = lower value
Procedure, shortened: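 Tumor cells grown as multi-cell spheroids with HUVEC endothelial cells and MSC fibroblast-like stroma were treated with targeted agents combined with inavolisib, alpelisib, duvelisib or copanlisib. Doses fell in half-log steps from near clinical Cmax, else from 10 microM. Viability was measured.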

[1] = second compound 0.00316 µM, first compound 0.000316 µM
[2] = second compound 0.00316 µM, first compound 0.001 µM
[3] = second compound 0.00316 µM, first compound 0.00316 µM
[4] = second compound 0.00316 µM, first compound 0.01 µM
[5] = second compound 0.00316 µM, first compound 0.0316 µM
[6] = second compound 0.00316 µM, first compound 0.1 µM
[7] = second compound 0.01 µM, first compound 0.000316 µM
[8] = second compound 0.01 µM, first compound 0.001 µM
[9] = second compound 0.01 µM, first compound 0.00316 µM
[10] = second compound 0.01 µM, first compound 0.01 µM
[11] = second compound 0.01 µM, first compound 0.0316 µM
[12] = second compound 0.01 µM, first compound 0.1 µM
[13] = second compound 0.0316 µM, first compound 0.000316 µM
[14] = second compound 0.0316 µM, first compound 0.001 µM
[15] = second compound 0.0316 µM, first compound 0.00316 µM
[16] = second compound 0.0316 µM, first compound 0.01 µM
[17] = second compound 0.0316 µM, first compound 0.0316 µM
[18] = second compound 0.0316 µM, first compound 0.1 µM
[19] = second compound 0.1 µM, first compound 0.000316 µM
[20] = second compound 0.1 µM, first compound 0.001 µM
[21] = second compound 0.1 µM, first compound 0.00316 µM
[22] = second compound 0.1 µM, first compound 0.01 µM
[23] = second compound 0.1 µM, first compound 0.0316 µM
[24] = second compound 0.1 µM, first compound 0.1 µM
[25] = second compound 0.316 µM, first compound 0.000316 µM
[26] = second compound 0.316 µM, first compound 0.001 µM
[27] = second compound 0.316 µM, first compound 0.00316 µM
[28] = second compound 0.316 µM, first compound 0.01 µM
[29] = second compound 0.316 µM, first compound 0.0316 µM
[30] = second compound 0.316 µM, first compound 0.1 µM
[31] = second compound 1 µM, first compound 0.000316 µM
[32] = second compound 1 µM, first compound 0.001 µM
[33] = second compound 1 µM, first compound 0.00316 µM
[34] = second compound 1 µM, first compound 0.01 µM
[35] = second compound 1 µM, first compound 0.0316 µM
[36] = second compound 1 µM, first compound 0.1 µM

With `CC(=O)c1c(C)c2cnc(Nc3ccc(N4CCNCC4)cn3)nc2n(C2CCCC2)c1=O` + COc1c(OCCCN2CCOCC2)ccc2c3n(c(=NC(=O)c4cnc(N)nc4)nc12)CCN3 the IC50 (second compound 0.00316 µM) was 79.4 nM, the IC50 (second compound 0.01 µM) was 37.3 nM and the IC50 (second compound 0.0316 µM) was 10.4 nM. The IC50 (second compound 0.1 µM) was under 0.316 nM, the IC50 (second compound 0.316 µM) was under 0.316 nM and the IC50 (second compound 1 µM) was under 0.316 nM. It also gave a viability, T/C [1] of 96.5%, a viability, T/C [2] of 94.8% and a viability, T/C [3] of 90.4%. The viability, T/C [4] was 85.2%, the viability, T/C [5] was 69.5% and the viability, T/C [6] was 45%. For the same compound, the viability, T/C [7] was 80.6%, the viability, T/C [8] was 79.9% and the viability, T/C [9] was 73.7%. For the same compound, the viability, T/C [10] was 62.5%, the viability, T/C [11] was 53.6% and the viability, T/C [12] was 35.9%. For the same compound, the viability, T/C [13] was 58.4%, the viability, T/C [14] was 59.7% and the viability, T/C [15] was 54.2%. It also gave a viability, T/C [16] of 50.5%, a viability, T/C [17] of 41.3% and a viability, T/C [18] of 26.7%. The viability, T/C [19] was 46.9%, the viability, T/C [20] was 44.9% and the viability, T/C [21] was 41.3%. It also gave a viability, T/C [22] of 39.2%, a viability, T/C [23] of 33.1% and a viability, T/C [24] of 21.1%. It also gave a viability, T/C [25] of 33.4%, a viability, T/C [26] of 31% and a viability, T/C [27] of 27.9%. For the same compound, the viability, T/C [28] was 27.3%, the viability, T/C [29] was 20.4% and the viability, T/C [30] was 16.4%. For the same compound, the viability, T/C [31] was 25%, the viability, T/C [32] was 25% and the viability, T/C [33] was 23.5%. For the same compound, the viability, T/C [34] was 24%, the viability, T/C [35] was 21.6% and the viability, T/C [36] was 19.6%.
`CC(C)n1nc(-c2ccc3oc(N)nc3c2)c2c(N)ncnc21` + COc1c(OCCCN2CCOCC2)ccc2c3n(c(=NC(=O)c4cnc(N)nc4)nc12)CCN3 showed an IC50 (second compound 0.00316 µM) of 46.8 nM, an IC50 (second compound 0.01 µM) of 19.5 nM and an IC50 (second compound 0.0316 µM) of 5.36 nM. For the same compound, the IC50 (second compound 0.1 µM) was under 0.316 nM, the IC50 (second compound 0.316 µM) was under 0.316 nM and the IC50 (second compound 1 µM) was under 0.316 nM. It also gave a viability, T/C [1] of 98.6%, a viability, T/C [2] of 93.6% and a viability, T/C [3] of 83.9%. It also gave a viability, T/C [4] of 76.1%, a viability, T/C [5] of 55.6% and a viability, T/C [6] of 36.9%. It also gave a viability, T/C [7] of 78.3%, a viability, T/C [8] of 78.5% and a viability, T/C [9] of 68.8%. The viability, T/C [10] was 58.3%, the viability, T/C [11] was 44.3% and the viability, T/C [12] was 29.1%. The viability, T/C [13] was 57.7%, the viability, T/C [14] was 59.3% and the viability, T/C [15] was 54.4%. It also gave a viability, T/C [16] of 44.2%, a viability, T/C [17] of 32.2% and a viability, T/C [18] of 21.4%. The viability, T/C [19] was 47%, the viability, T/C [20] was 45.8% and the viability, T/C [21] was 40.1%. For the same compound, the viability, T/C [22] was 34.7%, the viability, T/C [23] was 26.6% and the viability, T/C [24] was 19.8%. For the same compound, the viability, T/C [25] was 34.2%, the viability, T/C [26] was 31.5% and the viability, T/C [27] was 28.9%. It also gave a viability, T/C [28] of 25.4%, a viability, T/C [29] of 21.9% and a viability, T/C [30] of 18.5%. It also gave a viability, T/C [31] of 26%, a viability, T/C [32] of 23.9% and a viability, T/C [33] of 23.8%. It also gave a viability, T/C [34] of 23%, a viability, T/C [35] of 24.5% and a viability, T/C [36] of 22.5%.
